Laboratory results: patent US8901118B2, “Compounds and methods for kinase modulation, and indications therefor” (Plexxikon Inc., priority 2010, dated 2014)

Experiments:
BCR-FMS BaF3 cells = target: T1, BCR-FMS BaF3 cells (Homo sapiens, UniProt P07333); assay: BaF3 BCR-FMS cell proliferation assay (ATPlite); assay type: cell-based; conditions: read-out: Inhibition of Cell Proliferation IC50, BCR/BaF3 Fms
T1 construct: fused on or other part: P11274 (Breakpoint cluster region protein)
T1 sequence (P07333 582-910): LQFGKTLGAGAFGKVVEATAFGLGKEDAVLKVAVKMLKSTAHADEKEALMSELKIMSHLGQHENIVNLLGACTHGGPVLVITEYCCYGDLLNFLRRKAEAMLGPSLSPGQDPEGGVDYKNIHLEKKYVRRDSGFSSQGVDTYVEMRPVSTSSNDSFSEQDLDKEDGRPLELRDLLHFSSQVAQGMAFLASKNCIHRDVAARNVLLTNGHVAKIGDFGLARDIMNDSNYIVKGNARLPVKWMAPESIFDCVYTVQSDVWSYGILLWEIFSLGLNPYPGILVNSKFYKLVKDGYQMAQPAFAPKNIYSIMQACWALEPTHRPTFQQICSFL
Protocol: (§1) Compounds are assessed in a variety of cell based assays. For example BaF3 cells engineered with any of BCR-FMS, BCR-KIT, BCR-FLT3, BCR-NTRK1, BCR-NTRK2, and BCR-NTRK3, are used in cell proliferation assays to assess inhibitory activity of Fms, Kit, Flt-3, TrkA, TrkB, and TrkC, respectively. An MV-4-11 (leukemia) cell proliferation assay is used to assess inhibitory activity in Flt-3, and SKNSH (human neuroblastoma) cell proliferation assay is used to assess efficacy of Fms/Trk inhibitors. Additional cells may be assayed similarly to assess the efficacy of Fms/Trk inhibitors, such as MiaPaCa (human pancreatic cancer) and Capan-1 (human pancreatic carcinoma) cells. Reagent and assay conditions are as follows: • BaF3 cells: • Maintained in RPMI containing 10% FBS, 1% PenStrep, 1% NEAA, and 1% L-Glutamine, supplemented with 1 mg/mL G418 and 5% WEHI-CM (or recombinant murine IL-3). • Confluent cells are split 1:50 to 1:100 every 3-4 days. • MV-4-11 cells: • Maintained in Iscove's Modified Dulbecco's Medium containing 10% FBS. • Confluent cells are split 1:4 every 3-4 days. • SKNSH cells: RPMI containing 10% FBS. On day 1, cells are counted, then centrifuged in a conical tube for 5 minutes at 1000 rpm. The supernatant is removed and cells are re-suspended as follows: • BaF3: resuspend in growth media +1 mg/mL G418 (without WEHFIL-3) to 2×10^5 cells/mL. • MV-4-11: resuspend in growth media to 5×10^5 cells/mL. • SKNSH: resuspend in growth media to 2×10^4 cells/mL. The cells are plated (50 μL, 150 μL for SKNSH cells) in each well of a 96-well dish (Corning 3610) and incubated at 37° C. in 5% CO2 overnight, cells plated to a final concentration of cells as follows: • BaF3: 10,000 cells per well. • MV-4-11: 25,000 cells per well. • SKNSH: 3,000 cells per well. On day 2, compound at a maximum concentration of 5 mM is serially diluted 1:3 for a total of 8 point titration with DMSO as a control. A 1 μL aliquot of each dilution point is added to 249 μL growth media and 50 μL is added to a well containing cells, providing 10 μM compound for the maximum concentration point. The cells are incubated for 3 days at 37° C. in 5% CO2. For SKNSH cells, a 0.75 μL aliquot of appropriate dilution in DMSO is added to 150 μL of cells. On day 5, ATPlite 1 step Luminescence Assay System (Perkin Elmer #6016739) is brought to room temperature along with the cell cultures. ATPlite is added to each well as follows: • BaF3: 25 μL per well. • MV-4-11: 40 μL per well. • SKNSH: 20 μL per well. The cells are incubated at room temperature for 10 minutes, then luminescence is read on Safire reader. The measured luminescence correlates directly with cell number, such that the reading as a function of compound concentration is used to determine the IC50 value.
(§2) It is understood that the results of these assays may vary as assay conditions are varied. Inhibition levels determined under the conditions described herein represent a relative activity for the compounds tested under the specific conditions employed. The cell based assays are likely to show variability due to the complexity of the system and the sensitivity thereof to any changes in the assay conditions. […] Results for compounds that are tested and show substantially no inhibition below the highest tested concentration are represented as “-” in the tables below. In some instances, the compounds were not tested in all of the assays, or assay results were not valid, as indicated by NA in the tables below.

BCR-NTRK3 BaF3 cells = target: T2, BCR-NTRK3 BaF3 cells (Homo sapiens, UniProt Q16288); assay: BaF3 BCR-NTRK3 cell proliferation assay (ATPlite); assay type: cell-based; conditions: read-out: Inhibition of Cell Proliferation IC50, BCR/BaF3 TrkC
T2 construct: fused on or other part: P11274 (Breakpoint cluster region protein)
Protocol: as §1, §2

CYP2C9 = CYP2C9 (Homo sapiens, UniProt P11712); assay: CYP2C9 inhibition (fluorescent substrate MFC); assay type: in vitro ADME; conditions: read-out: Cyp IC50 2C9
Protocol: CYP (Cytochrome P450) enzymes are the major drug metabolizing enzymes present in the liver. The inhibition of CYP enzyme activity (IC50) for each of CYP1A2, CYP2C19, CYP2C9, CYP2D6, CYP3A4(BFC) and CYP3A4(BQ) is determined for compounds, where inhibition of metabolism of a known substrate leads to a decrease in the fluorescence of the metabolized product. The fluorescence of the product is monitored as a function of compound concentration. Compounds are dissolved in DMSO to a concentration of 100 mM. These are diluted 1 μL into 82 μL of acetonitrile. An 11 μL aliquot of this solution is then added to 204 μL of cofactor mix (1.3% NADPH Regeneration system Solution A, 1.04% NADPH Regeneration system Solution B from BD Biosciences, 5% acetonitrile and 0.05% DMSO). These are then serially diluted 1:1 (160 μL to 160 μL co-factor mix) for a total of 10 points. A 10 μL aliquot of this final mixture is dispensed into 384 well assay plates and incubated for 10 minutes at 37° C. […] Assay plates are incubated at 37° C. (CYP1A2-15 min; CYP2C9-45 min; CYP2C19, 2D6 and 3A4-30 min) and read in a Tecan Safire 2 plate reader (CYP1A2, 2C19 and 3A4 409 ex/460 em; CYP2C9 and 2D6 409 ex/530 em). The signal versus compound concentration is used to determine the IC50. The enzymes and substrates for this assay are obtained from BD Biosciences.

T2 sequence (Q16288 whole entry, the tested form may be a part): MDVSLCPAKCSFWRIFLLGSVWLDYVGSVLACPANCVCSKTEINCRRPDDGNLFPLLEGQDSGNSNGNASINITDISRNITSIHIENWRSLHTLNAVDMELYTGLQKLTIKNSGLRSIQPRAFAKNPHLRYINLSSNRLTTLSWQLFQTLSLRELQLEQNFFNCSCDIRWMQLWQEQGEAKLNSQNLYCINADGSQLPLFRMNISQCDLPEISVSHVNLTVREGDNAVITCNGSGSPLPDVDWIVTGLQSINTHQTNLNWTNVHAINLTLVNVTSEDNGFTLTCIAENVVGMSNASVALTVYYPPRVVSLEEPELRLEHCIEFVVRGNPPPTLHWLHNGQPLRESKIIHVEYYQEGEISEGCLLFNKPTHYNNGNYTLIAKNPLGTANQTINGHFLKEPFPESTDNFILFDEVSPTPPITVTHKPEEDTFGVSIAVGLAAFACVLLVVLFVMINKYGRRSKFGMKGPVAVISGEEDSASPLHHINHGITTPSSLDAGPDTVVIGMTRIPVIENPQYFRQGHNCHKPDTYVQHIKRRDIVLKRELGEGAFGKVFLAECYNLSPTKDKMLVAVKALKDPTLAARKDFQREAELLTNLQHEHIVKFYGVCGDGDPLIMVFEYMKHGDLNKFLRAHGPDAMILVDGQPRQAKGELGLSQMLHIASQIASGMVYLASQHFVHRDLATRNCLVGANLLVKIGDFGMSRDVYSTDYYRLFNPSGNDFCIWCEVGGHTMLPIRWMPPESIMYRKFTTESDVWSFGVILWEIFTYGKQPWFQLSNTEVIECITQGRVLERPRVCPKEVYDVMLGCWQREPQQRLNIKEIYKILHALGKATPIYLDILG
CYP2C9, sequence (P11712 whole entry): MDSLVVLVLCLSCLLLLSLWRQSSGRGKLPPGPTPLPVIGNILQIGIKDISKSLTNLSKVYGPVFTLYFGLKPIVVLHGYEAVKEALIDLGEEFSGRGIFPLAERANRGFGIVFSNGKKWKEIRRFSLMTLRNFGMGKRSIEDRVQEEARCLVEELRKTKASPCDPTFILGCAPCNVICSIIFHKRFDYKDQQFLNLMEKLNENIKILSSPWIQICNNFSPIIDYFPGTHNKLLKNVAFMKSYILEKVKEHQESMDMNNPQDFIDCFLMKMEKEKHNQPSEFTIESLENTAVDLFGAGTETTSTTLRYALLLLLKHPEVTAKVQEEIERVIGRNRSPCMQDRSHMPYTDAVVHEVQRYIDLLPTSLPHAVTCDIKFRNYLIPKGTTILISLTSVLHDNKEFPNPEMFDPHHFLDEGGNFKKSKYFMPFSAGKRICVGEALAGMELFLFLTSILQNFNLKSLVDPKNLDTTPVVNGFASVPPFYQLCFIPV

| Compound | IC50 (BCR-FMS BaF3 cells) [nM] | IC50 (BCR-NTRK3 BaF3 cells) [nM] | IC50 (CYP2C9) [nM] |
| --- | --- | --- | --- |
| CCCNc1ncnc2[nH]cc(C(=O)c3ccc(Nc4cncc(OC)c4)nc3F)c12 [Compound P-4105, [2-fluoro-6-[(5-methoxy-3-pyridyl)amino]-3-pyridyl]-[4-(propylamino)-7H-pyrrolo[2,3-d]pyrimidin-5-yl]methanone] | < 100 | < 1000 | > 10000 |
| O=C(c1ccc(NC2CCC(F)(F)CC2)nc1)c1c[nH]c2ncnc(NCC(F)(F)F)c12 [Compound P-4087, [6-[(4,4-difluorocyclohexyl)amino]-3-pyridyl]-[4-(2,2,2-trifluoroethylamino)-7H-pyrrolo[2,3-d]pyrimidin-5-yl]methanone] | < 1000 | < 10 | > 10000 |
| COc1ccc(Nc2ccc(C(=O)c3c[nH]c4ncnc(N5CCCCC5)c34)c(F)n2)cn1 [Compound P-4069, [2-fluoro-6-[(6-methoxy-3-pyridyl)amino]-3-pyridyl]-[4-(1-piperidyl)-7H-pyrrolo[2,3-d]pyrimidin-5-yl]methanone] | > 1000 | > 1000 | > 10000 |
| COc1ccc(Nc2ccc(C(=O)c3c[nH]c4ncnc(N[C@@H](C)c5ccc(F)cc5)c34)c(F)n2)cn1 [Compound P-4072, [2-fluoro-6-[(6-methoxy-3-pyridyl)amino]-3-pyridyl]-[4-[[(1S)-1-(4-fluorophenyl)ethyl]amino]-7H-pyrrolo[2,3-d]pyrimidin-5-yl]methanone] | < 100 | < 10 | 5000 to 10000 |
| Fc1nc(NC2CCC(F)(F)CC2)ccc1Cc1c[nH]c2ncc(Cl)cc12 [Compound P-3013, [5-(5-Chloro-1H-pyrrolo[2,3-b]pyridin-3-ylmethyl)-6-fluoro-pyridin-2-yl]-(4,4-difluoro-cyclohexyl)-amine] | < 100 | > 10000 | > 10000 |
| CNc1ncnc2[nH]cc(C(=O)c3ccc(NC4CCC(F)(F)CC4)nc3Cl)c12 [Compound P-4058, [2-chloro-6-[(4,4-difluorocyclohexyl)amino]-3-pyridyl]-[4-(methylamino)-7H-pyrrolo[2,3-d]pyrimidin-5-yl]methanone] | < 100 | < 100 | > 10000 |
| CNc1ncnc2[nH]cc(C(=O)c3ccc(NC4CCC(F)(F)CC4)nc3)c12 [Compound P-4089, [6-[(4,4-difluorocyclohexyl)amino]-3-pyridyl]-[4-(methylamino)-7H-pyrrolo[2,3-d]pyrimidin-5-yl]methanone] | < 100 | < 10 | > 10000 |
| Cc1cnc2[nH]cc(Cc3cnc(Nc4ccc(F)cc4)nc3)c2c1 [Compound P-3010, (4-Fluoro-phenyl)-[5-(5-methyl-1H-pyrrolo[2,3-b]pyridin-3-ylmethyl)-pyrimidin-2-yl]-amine] | < 100 | > 10000 | > 10000 |

The remaining lines, values ahead:

| IC50 (BCR-FMS BaF3 cells) [nM] | IC50 (BCR-NTRK3 BaF3 cells) [nM] | IC50 (CYP2C9) [nM] | Compound |
| --- | --- | --- | --- |
| < 10 | < 10 | > 10000 | CCNc1ncnc2[nH]cc(C(=O)c3ccc(Nc4ccc(OC)nc4)nc3F)c12 [Compound P-4081, [4-(ethylamino)-7H-pyrrolo[2,3-d]pyrimidin-5-yl]-[2-fluoro-6-[(6-methoxy-3-pyridyl)amino]-3-pyridyl]methanone] |
| < 10 | < 10 | > 10000 | CCc1ccc(Nc2ccc(C(=O)c3c[nH]c4ncnc(NCC5CC5)c34)c(F)n2)cn1 [Compound P-4118, [4-(cyclopropylmethylamino)-7H-pyrrolo[2,3-d]pyrimidin-5-yl]-[6-[(6-ethyl-3-pyridyl)amino]-2-fluoro-3-pyridyl]methanone] |
| < 100 | < 10 | < 5000 | CNc1ncnc2[nH]cc(C(=O)c3ccc(Nc4ccc(C5CC5)nc4)nc3F)c12 [Compound P-4094, [6-[(6-cyclopropyl-3-pyridyl)amino]-2-fluoro-3-pyridyl]-[4-(methylamino)-7H-pyrrolo[2,3-d]pyrimidin-5-yl]methanone] |
| < 10 | < 10 | > 10000 | CCc1ccc(Nc2ccc(C(=O)c3c[nH]c4ncnc(NCCOC)c34)c(F)n2)cn1 [Compound P-4119, [6-[(6-ethyl-3-pyridyl)amino]-2-fluoro-3-pyridyl]-[4-(2-methoxyethylamino)-7H-pyrrolo[2,3-d]pyrimidin-5-yl]methanone] |
| < 100 | < 10 | > 10000 | CCc1ccc(Nc2ccc(C(=O)c3c[nH]c4ncnc(NCC(C)(C)O)c34)c(F)n2)cn1 [Compound P-4064, [6-[(6-ethyl-3-pyridyl)amino]-2-fluoro-3-pyridyl]-[4-[(2-hydroxy-2-methyl-propyl)amino]-7H-pyrrolo[2,3-d]pyrimidin-5-yl]methanone] |
| < 100 | < 10 | > 10000 | COc1ccc(Nc2ccc(C(=O)c3c[nH]c4ncnc(NCC5CCCO5)c34)c(F)n2)cn1 (stereo not drawn) [Compound P-4073, [2-fluoro-6-[(6-methoxy-3-pyridyl)amino]-3-pyridyl]-[4-(tetrahydrofuran-2-ylmethylamino)-7H-pyrrolo[2,3-d]pyrimidin-5-yl]methanone] |
| < 100 | < 10 | 5000 to 10000 | Cc1ccc(Nc2ccc(C(=O)c3c[nH]c4ncnc(NC5CCCCC5)c34)c(F)n2)cn1 [Compound P-4111, [4-(cyclohexylamino)-7H-pyrrolo[2,3-d]pyrimidin-5-yl]-[2-fluoro-6-[(6-methyl-3-pyridyl)amino]-3-pyridyl]methanone] |
| < 100 | < 10 | < 5000 | COc1cncc(Nc2ccc(C(=O)c3c[nH]c4ncnc(NC5CC5)c34)c(F)n2)c1 [Compound P-4107, [4-(cyclopropylamino)-7H-pyrrolo[2,3-d]pyrimidin-5-yl]-[2-fluoro-6-[(5-methoxy-3-pyridyl)amino]-3-pyridyl]methanone] |
